Reference: patent publication US20180246095A1, “COMPOSITIONS AND METHODS FOR DIAGNOSING AND TREATING LYME DISEASE” (priority 2015, published 2018)

System: B. burgdorferi B31
Assay: RNA-Seq gene expression profile of B. burgdorferi persisters that survived antibiotic treatment, compared with drug free control
Assay type: cell-based, Borrelia burgdorferi
Conditions: vs drug free control
Method: RNA Sequencing (RNA-Seq) was performed to determine the gene expression profile of B. burgdorferi persisters that survived antibiotic treatment using next generation sequencing to shed light on the mechanisms of B. burgdorferi persistence. B. burgdorferi B31 cultures were grown for 5 days to 1×10^7 spirochetes/ml in BSK-H medium followed by treatment with 50 μg/ml doxycycline or 50 μg/ml amoxicillin for 6 days. Triplicate biological samples were used for each group. The total RNA was extracted and ribosomal RNA was removed prior to preparation of cDNA libraries for Illumina sequencing. […] The RNA-Seq data was analyzed by BLAST analysis and mapped to KEGG pathways.

[1] = 50 μg/ml antibiotic for 6 days, more than two-fold change

Row | Structure (SMILES) | genes down-regulated in treated group (50 μg/ml antibiotic for 6 days) [genes] | genes upregulated in treated group (50 μg/ml antibiotic for 6 days) [genes] | total genes differentially expressed between tolerant persisters and drug free group (50 μg/ml antibiotic for 6 days) [genes] | down-regulated genes identified by more than two-fold change [1] [genes] | up-regulated genes identified by more than two-fold change [1] [genes] | clpP (BB_0757) expression, upregulated fold change in persisters (B31 culture treated with 50 μg/ml antibiotic for 6 days) [fold]
1 | CC1(C)S[C@@H]2[C@H](NC(=O)[C@H](N)c3ccc(O)cc3)C(=O)N2[C@H]1C(=O)O [amoxicillin, reference compound] | 174 | 342 | 516 |  |  | 
2 | C[C@H]1c2cccc(O)c2C(=O)C2=C(O)[C@]3(O)C(=O)C(C(N)=O)=C(O)[C@@H](N(C)C)[C@@H]3[C@@H](O)[C@@H]21 [doxycycline, reference compound] | 340 | 335 | 675 | 33 | 35 | 30
